This passage reports AC50 results from ChEMBL document CHEMBL5291721, “A preclinical secondary pharmacology resource illuminates target-adverse drug reaction associations of marketed drugs” (Nat Commun, 2023).

Each structure is given as a SMILES string. A value given as a limit tells only on which side of the number the result lay.

Experiment [1] has as its target T1, Alpha-1A adrenergic receptor (Homo sapiens, UniProt P35348).
T1 sequence (P35348 whole entry): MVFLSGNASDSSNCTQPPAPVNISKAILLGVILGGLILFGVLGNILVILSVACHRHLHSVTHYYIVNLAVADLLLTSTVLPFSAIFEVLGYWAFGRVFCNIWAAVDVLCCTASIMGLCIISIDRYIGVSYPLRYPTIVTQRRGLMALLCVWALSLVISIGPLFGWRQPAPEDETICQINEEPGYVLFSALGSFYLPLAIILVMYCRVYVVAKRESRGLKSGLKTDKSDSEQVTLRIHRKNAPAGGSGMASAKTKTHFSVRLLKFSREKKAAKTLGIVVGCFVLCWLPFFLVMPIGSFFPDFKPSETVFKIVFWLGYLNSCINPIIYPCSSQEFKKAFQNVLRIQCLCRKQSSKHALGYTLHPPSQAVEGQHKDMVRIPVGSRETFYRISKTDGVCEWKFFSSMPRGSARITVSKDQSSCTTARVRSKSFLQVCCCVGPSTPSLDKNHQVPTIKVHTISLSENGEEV
Type of experiment: functional, cell-based.

In experiment [2] the target is Voltage-dependent L-type calcium channel subunit alpha-1C (Rattus norvegicus, UniProt P22002). Type of experiment: functional.
Experiment [3] addresses T2, Cannabinoid receptor 1 (Homo sapiens, UniProt P21554). It counts as functional, cell-based.
Experiment [4] concerns the target T2, Cannabinoid receptor 1. It counts as functional, cell-based. The source holds these as a separate data set.
For experiment [5], the target named is T2, Cannabinoid receptor 1.
Experiment [6] has as its target D(3) dopamine receptor (Homo sapiens, UniProt P35462).
The target of experiment [7] is Histamine H3 receptor (Homo sapiens, UniProt Q9Y5N1).
The target in experiment [8] is T3, 5-hydroxytryptamine receptor 1A (Homo sapiens, UniProt P08908).
T3 sequence (P08908 whole entry): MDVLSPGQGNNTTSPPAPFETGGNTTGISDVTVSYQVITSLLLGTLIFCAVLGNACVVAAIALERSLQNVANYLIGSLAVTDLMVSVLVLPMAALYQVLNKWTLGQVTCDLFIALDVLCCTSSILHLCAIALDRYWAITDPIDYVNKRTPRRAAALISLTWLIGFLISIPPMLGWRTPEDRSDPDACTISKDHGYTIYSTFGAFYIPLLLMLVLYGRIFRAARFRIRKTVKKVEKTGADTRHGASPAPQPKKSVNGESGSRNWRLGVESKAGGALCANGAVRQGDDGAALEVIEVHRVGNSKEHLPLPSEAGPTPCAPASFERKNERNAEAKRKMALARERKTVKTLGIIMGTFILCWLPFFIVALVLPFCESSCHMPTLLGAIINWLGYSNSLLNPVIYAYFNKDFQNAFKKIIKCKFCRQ
It counts as functional, cell-based.

Experiment [9] addresses 5-hydroxytryptamine receptor 2B (Homo sapiens, UniProt P41595). Type of experiment: functional, cell-based.
Experiment [10] has as its target Mu-type opioid receptor (Homo sapiens, UniProt P35372).
In experiment [11] the target is Prostaglandin G/H synthase 1 (Homo sapiens, UniProt P23219). It counts as functional.
In experiment [12] the target is T4, Progesterone receptor (Homo sapiens, UniProt P06401).
T4 sequence (P06401 whole entry): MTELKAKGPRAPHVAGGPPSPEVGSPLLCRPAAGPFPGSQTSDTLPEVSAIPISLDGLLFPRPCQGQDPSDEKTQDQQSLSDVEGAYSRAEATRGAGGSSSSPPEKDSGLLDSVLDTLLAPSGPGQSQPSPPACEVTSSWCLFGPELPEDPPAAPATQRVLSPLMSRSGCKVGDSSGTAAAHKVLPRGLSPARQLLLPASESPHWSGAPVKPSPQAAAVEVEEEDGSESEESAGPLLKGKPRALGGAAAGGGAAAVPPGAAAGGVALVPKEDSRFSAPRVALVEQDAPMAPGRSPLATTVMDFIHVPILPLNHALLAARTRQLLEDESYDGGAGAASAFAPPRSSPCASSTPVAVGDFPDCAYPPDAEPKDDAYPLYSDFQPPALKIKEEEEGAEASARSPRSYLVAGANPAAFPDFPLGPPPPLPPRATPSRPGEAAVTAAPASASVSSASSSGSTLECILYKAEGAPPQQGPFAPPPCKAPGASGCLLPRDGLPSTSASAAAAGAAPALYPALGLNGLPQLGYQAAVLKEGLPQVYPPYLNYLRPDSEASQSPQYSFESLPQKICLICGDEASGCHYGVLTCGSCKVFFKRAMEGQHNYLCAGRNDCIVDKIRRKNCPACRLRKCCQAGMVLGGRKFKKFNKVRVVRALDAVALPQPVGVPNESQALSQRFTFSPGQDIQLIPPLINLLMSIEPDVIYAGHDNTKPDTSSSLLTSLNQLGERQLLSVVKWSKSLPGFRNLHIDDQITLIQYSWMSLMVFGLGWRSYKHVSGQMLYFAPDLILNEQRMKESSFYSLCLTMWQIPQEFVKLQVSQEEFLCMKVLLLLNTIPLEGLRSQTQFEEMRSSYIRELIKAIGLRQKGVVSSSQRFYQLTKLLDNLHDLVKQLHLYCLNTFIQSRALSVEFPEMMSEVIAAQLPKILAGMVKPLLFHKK
It counts as functional.

Experiment [13] deals with T4, Progesterone receptor. It counts as functional. This is another data set of the same source.
Experiment [14] concerns the target T5, Muscarinic acetylcholine receptor M1 (Homo sapiens, UniProt P11229).
T5 sequence (P11229 whole entry): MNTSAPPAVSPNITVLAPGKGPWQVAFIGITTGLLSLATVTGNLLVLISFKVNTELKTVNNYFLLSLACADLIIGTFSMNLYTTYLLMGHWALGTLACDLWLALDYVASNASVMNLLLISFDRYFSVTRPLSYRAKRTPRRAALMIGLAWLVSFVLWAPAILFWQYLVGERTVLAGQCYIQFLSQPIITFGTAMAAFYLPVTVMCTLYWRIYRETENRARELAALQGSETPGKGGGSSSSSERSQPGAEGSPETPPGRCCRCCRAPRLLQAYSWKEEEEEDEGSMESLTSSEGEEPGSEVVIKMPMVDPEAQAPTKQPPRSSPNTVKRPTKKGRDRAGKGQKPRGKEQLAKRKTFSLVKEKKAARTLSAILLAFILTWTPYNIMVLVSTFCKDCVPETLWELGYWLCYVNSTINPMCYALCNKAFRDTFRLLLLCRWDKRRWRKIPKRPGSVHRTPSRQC
It counts as functional, cell-based.

The target of experiment [15] is Muscarinic acetylcholine receptor M3 (Homo sapiens, UniProt P20309).
Note: assay procedure not described here.

Chain of D(3) dopamine receptor (P35462 whole entry): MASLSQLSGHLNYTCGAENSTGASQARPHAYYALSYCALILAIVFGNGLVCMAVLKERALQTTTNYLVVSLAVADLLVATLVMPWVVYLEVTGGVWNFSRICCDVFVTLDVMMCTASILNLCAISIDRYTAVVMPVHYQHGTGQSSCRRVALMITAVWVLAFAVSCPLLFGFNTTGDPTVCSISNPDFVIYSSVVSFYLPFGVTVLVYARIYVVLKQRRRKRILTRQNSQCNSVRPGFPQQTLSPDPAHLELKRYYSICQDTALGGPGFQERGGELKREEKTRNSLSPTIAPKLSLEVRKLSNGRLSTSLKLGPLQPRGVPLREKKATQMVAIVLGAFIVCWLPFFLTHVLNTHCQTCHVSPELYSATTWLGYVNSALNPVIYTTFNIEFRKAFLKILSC
Chain of Prostaglandin G/H synthase 1 (P23219 whole entry): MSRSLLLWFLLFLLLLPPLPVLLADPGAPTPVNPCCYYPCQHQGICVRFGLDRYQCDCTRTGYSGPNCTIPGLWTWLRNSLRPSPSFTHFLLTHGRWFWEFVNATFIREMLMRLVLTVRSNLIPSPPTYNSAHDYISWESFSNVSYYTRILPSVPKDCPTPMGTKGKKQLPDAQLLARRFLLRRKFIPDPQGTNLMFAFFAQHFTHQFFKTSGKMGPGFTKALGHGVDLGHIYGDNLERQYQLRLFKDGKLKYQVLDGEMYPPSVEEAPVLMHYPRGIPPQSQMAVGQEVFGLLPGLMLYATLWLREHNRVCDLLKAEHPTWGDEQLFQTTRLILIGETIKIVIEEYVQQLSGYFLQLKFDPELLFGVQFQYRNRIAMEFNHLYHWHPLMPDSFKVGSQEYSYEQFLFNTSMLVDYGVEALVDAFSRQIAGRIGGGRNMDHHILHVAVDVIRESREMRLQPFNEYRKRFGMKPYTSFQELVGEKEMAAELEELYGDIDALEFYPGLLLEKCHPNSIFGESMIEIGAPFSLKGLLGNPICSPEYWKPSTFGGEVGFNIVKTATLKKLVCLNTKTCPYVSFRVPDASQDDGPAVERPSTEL
Chain of 5-hydroxytryptamine receptor 2B (P41595 whole entry): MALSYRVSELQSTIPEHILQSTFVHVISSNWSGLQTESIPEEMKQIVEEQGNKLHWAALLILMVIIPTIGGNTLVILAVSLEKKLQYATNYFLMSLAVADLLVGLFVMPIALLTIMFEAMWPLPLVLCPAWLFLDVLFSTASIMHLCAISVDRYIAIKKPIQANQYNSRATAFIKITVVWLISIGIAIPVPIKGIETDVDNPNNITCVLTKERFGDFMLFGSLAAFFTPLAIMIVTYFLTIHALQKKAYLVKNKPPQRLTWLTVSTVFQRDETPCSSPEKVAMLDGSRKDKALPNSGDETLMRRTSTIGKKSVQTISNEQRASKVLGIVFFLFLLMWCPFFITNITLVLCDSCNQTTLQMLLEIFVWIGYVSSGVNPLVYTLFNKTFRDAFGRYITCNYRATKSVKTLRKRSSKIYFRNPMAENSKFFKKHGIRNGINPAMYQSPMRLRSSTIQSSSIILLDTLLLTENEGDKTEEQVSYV
Chain of Mu-type opioid receptor (P35372 whole entry): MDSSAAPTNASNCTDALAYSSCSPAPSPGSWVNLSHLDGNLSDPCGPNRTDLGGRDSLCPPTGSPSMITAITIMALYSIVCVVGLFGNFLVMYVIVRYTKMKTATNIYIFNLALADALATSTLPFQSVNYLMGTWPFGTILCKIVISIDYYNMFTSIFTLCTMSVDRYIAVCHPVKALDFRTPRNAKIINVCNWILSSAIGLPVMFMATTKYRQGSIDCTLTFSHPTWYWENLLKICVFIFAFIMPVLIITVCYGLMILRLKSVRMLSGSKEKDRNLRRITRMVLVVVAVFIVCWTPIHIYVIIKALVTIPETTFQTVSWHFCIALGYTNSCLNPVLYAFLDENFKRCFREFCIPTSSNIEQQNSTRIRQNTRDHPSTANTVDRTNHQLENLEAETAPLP
Chain of Voltage-dependent L-type calcium channel subunit alpha-1C (P22002 whole entry): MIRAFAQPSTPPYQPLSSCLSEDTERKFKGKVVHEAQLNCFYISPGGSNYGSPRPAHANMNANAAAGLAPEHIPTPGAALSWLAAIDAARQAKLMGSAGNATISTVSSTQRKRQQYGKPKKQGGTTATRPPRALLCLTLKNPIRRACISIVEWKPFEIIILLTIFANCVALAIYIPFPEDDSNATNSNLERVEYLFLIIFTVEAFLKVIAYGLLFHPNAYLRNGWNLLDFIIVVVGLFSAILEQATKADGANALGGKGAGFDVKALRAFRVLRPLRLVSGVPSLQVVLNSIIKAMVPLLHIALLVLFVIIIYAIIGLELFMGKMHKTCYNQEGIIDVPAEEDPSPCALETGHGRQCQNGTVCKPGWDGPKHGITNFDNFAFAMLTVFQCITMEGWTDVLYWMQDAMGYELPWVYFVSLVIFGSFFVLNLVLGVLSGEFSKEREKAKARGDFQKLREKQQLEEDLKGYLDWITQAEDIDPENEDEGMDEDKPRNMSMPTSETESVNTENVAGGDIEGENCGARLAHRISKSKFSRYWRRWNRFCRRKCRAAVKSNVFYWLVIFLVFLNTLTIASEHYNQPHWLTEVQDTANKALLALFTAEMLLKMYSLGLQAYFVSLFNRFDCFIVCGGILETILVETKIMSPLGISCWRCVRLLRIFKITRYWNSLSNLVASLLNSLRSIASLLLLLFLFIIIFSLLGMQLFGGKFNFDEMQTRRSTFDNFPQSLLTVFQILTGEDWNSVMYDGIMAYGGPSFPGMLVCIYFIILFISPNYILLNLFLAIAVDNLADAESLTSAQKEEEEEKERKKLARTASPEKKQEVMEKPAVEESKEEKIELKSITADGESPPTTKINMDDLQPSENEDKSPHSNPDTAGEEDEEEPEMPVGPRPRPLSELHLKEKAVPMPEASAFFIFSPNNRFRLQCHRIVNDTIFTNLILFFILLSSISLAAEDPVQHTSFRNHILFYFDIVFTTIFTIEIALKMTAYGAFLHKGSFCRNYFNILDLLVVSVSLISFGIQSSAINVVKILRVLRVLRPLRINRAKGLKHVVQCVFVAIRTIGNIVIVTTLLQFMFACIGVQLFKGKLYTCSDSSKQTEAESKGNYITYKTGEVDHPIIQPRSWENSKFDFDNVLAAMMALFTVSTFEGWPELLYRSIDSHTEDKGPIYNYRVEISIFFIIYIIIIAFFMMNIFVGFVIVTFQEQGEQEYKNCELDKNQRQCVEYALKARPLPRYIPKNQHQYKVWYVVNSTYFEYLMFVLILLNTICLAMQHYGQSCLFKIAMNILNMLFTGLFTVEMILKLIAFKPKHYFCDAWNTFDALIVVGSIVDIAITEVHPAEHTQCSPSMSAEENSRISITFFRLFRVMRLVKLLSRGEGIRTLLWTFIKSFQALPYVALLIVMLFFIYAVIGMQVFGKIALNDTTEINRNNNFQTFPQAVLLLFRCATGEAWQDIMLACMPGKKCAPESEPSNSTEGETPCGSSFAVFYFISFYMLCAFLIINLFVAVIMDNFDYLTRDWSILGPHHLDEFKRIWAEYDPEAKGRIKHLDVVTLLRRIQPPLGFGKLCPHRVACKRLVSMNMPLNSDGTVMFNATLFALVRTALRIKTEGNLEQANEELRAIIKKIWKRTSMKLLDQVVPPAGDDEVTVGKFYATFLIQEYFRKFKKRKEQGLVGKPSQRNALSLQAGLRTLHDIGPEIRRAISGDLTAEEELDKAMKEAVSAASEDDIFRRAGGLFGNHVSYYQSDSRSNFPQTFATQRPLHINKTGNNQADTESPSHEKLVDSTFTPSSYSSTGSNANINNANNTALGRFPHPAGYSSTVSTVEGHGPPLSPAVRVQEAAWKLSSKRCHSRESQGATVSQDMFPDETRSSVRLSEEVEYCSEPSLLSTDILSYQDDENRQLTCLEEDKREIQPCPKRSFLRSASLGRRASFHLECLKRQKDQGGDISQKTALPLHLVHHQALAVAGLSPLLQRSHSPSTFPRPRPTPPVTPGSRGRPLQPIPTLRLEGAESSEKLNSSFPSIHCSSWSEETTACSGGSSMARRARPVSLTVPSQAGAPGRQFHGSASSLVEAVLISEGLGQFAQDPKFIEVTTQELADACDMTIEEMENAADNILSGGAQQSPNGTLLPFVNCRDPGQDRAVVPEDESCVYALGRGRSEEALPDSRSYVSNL
Chain of Histamine H3 receptor (Q9Y5N1 whole entry): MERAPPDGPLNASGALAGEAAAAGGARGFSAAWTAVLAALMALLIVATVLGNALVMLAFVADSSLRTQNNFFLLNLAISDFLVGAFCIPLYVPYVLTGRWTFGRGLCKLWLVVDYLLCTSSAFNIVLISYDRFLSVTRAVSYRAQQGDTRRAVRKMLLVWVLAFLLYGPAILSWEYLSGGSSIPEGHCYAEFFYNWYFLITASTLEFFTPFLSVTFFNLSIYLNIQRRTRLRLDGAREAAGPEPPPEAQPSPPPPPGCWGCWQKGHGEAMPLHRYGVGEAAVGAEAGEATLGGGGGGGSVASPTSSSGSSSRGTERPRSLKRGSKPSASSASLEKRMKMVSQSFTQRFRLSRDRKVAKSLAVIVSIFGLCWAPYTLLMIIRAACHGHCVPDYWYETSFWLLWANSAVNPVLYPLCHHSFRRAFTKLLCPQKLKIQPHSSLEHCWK
T2 sequence (P21554 whole entry): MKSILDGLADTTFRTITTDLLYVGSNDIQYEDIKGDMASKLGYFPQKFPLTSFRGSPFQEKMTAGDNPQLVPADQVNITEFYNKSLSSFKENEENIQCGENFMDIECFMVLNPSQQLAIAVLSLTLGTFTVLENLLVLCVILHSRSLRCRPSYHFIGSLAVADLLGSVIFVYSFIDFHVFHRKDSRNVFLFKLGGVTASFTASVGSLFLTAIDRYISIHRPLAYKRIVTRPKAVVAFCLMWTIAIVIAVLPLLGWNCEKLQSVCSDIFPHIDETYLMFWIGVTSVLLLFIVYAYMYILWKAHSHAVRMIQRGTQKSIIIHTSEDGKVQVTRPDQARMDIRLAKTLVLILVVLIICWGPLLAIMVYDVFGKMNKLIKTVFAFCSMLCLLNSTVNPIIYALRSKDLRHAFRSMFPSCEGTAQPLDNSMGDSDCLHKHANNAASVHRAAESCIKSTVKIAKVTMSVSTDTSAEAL

By AC50 is commonly meant the midpoint of the concentration-response curve, whichever way the signal moves. `CC[C@H]1OC(=O)[C@H](C)[C@@H](O[C@H]2C[C@@](C)(OC)[C@@H](O)[C@H](C)O2)[C@H](C)[C@@H](O[C@@H]2O[C@H](C)C[C@H](N(C)C)[C@H]2O)[C@](C)(O)C[C@@H](C)CN(C)[C@H](C)[C@@H](O)[C@]1(C)O` [AZITHROMYCIN]: the AC50 in experiment [1] was greater than 30 µM; in [2], greater than 10 µM; in experiment [3] it was greater than 30 µM; in [4], greater than 30 µM; in [5], greater than 10 µM; in experiment [6] it was greater than 30 µM. The AC50 in experiment [7] was greater than 30 µM; in experiment [8] it was greater than 10 µM; in experiment [9] it was greater than 30 µM; in experiment [10], greater than 30 µM; in [11] it was greater than 30 µM.

Consider `NCC(CC(=O)O)c1ccc(Cl)cc1` (stereo not given) [BACLOFEN], for which the AC50 in [1] is greater than 30 µM; in experiment [2], greater than 10 µM; in [3], greater than 30 µM; in experiment [4], greater than 30 µM; in [5], greater than 10 µM; in experiment [6], 14.7 µM. Moreover, the AC50 in experiment [7], in [8], in experiment [9], in experiment [10], in [12] and in [13] was greater than 30 µM throughout. Further, the AC50 in [11] is greater than 30 µM.

As for `Cc1cccc(Nc2ccccc2C(=O)O)c1C` [MEFENAMIC ACID], the AC50 is greater than 30 µM in experiment [1]; greater than 10 µM in experiment [2]; greater than 10 µM in experiment [5]; greater than 30 µM in experiment [6]; greater than 30 µM in [7]; greater than 10 µM in experiment [8]. Also, the AC50 was greater than 30 µM in experiment [9]; greater than 30 µM in [10]; greater than 10 µM in [12]; greater than 10 µM in [13]; 0.0115 µM in [11].

`CC1(C)NC(=O)N(c2ccc([N+](=O)[O-])c(C(F)(F)F)c2)C1=O` [NILUTAMIDE]: the AC50 in [1] was greater than 3 µM; in [2] it was greater than 30 µM; in experiment [14], greater than 30 µM; in [15], greater than 30 µM; in experiment [5] it was greater than 30 µM; in [6], greater than 30 µM. Besides, the AC50 in experiment [7], in [8], in experiment [9], in experiment [10], in experiment [12] and in [13] was greater than 30 µM each time. In [11], the half-maximal activity concentration (AC50) was greater than 30 µM.

`CS(=O)(=O)c1ccc(C2=C(c3ccccc3)C(=O)OC2)cc1` [ROFECOXIB]: the AC50 in experiment [1] was greater than 30 µM; in experiment [2] it was greater than 10 µM; in [3], greater than 30 µM; in experiment [4], greater than 30 µM; in experiment [5] it was greater than 10 µM; in experiment [6], greater than 30 µM. Also, the AC50 in experiment [7] was greater than 30 µM; in [8], 35 µM; in [9], greater than 30 µM; in [10], greater than 30 µM.

With `CO[C@H]1C[C@@H]2CC[C@@H](C)[C@@](O)(O2)C(=O)C(=O)N2CCCC[C@H]2C(=O)O[C@H]([C@H](C)C[C@@H]2CC[C@@H](O)[C@H](OC)C2)CC(=O)[C@H](C)/C=C(\C)[C@@H](O)[C@@H](OC)C(=O)[C@H](C)C[C@H](C)/C=C/C=C/C=C/1C` [SIROLIMUS], the AC50 in experiment [1] was greater than 30 µM; in experiment [2] it was greater than 10 µM; in [3], greater than 30 µM; in experiment [4], greater than 30 µM; in experiment [5], greater than 10 µM; in experiment [6], greater than 30 µM. Further, the AC50 in experiment [7] was greater than 30 µM; in experiment [8], greater than 10 µM; in [9], greater than 30 µM; in experiment [10], greater than 30 µM; in experiment [11], 23.3 µM.

For `Cc1cn([C@H]2C=C[C@@H](CO)O2)c(=O)[nH]c1=O` [STAVUDINE], the AC50 in experiment [1] was greater than 30 µM; in experiment [2] it was greater than 10 µM; in experiment [3] it was greater than 30 µM; in [4] it was greater than 30 µM; in [5], greater than 10 µM; in [6], greater than 30 µM. In addition, the AC50 in [7] was greater than 30 µM; in experiment [8], greater than 10 µM; in [9] it was greater than 30 µM; in experiment [10] it was greater than 30 µM; in experiment [11] it was greater than 30 µM.
